This passage reports IC50 and Ki results from ChEMBL document CHEMBL1123447, “Biologically active derivatives of gossypol: synthesis and antimalarial activities of peri-acylated gossylic nitriles” (J Med Chem, 1986).

Structures are written as SMILES.

As usually defined, the IC50 is the concentration at which inhibition is half-maximal. A higher IC50 goes with weaker potency in that assay. Broadly, the Ki is the dissociation constant of the complex between target and ligand, obtained from inhibition or displacement. A lower Ki goes with a stronger hold on the target.

Test [1] has as its system Plasmodium falciparum. Briefly: Antimalarial activity against chloroquine-sensitive Plasmodium falciparum CDC/I/HB-3. It is filed as functional, organism-based.
Test [2] relates to Plasmodium falciparum. Description: Antimalarial activity against chloroquine-resistant Plasmodium falciparum FCB/NC1. It is filed as functional, organism-based.
The nature of test [3]: Compound was tested for the inhibition of LDH from a chloroquine-resistant strain (FCB/NC-1) of Plasmodium falciparum.

Take `CCC(=O)Oc1c(-c2c(C)cc3c(C(C)C)c(O)c(O)c(C#N)c3c2OC(=O)CC)c(C)cc2c(C(C)C)c(O)c(O)c(C#N)c12`: the results for the IC50 in test [1] and in test [2] were 46 µM and 69 µM, respectively. The same compound registered a Ki in test [3] of 1.1 µM.
For `CC(=O)Oc1c(-c2c(C)cc3c(C(C)C)c(O)c(O)c(C#N)c3c2OC(C)=O)c(C)cc2c(C(C)C)c(O)c(O)c(C#N)c12` the same measures were 36 µM, 76 µM and 0.83 µM.
As for `CCCCC(=O)Oc1c(-c2c(C)cc3c(C(C)C)c(O)c(O)c(C#N)c3c2OC(=O)CCCC)c(C)cc2c(C(C)C)c(O)c(O)c(C#N)c12`, the IC50 in test [1] is 12 µM; in test [2] it was 16 µM. The compound also yielded a Ki in test [3] of 0.33 µM.
On the same counts, the results for `CCCC(=O)Oc1c(-c2c(C)cc3c(C(C)C)c(O)c(O)c(C#N)c3c2OC(=O)CCC)c(C)cc2c(C(C)C)c(O)c(O)c(C#N)c12` are 21 µM, 26 µM and 0.62 µM.
Regarding `Cc1cc2c(C(C)C)c(O)c(O)c(C=O)c2c(O)c1-c1c(C)cc2c(C(C)C)c(O)c(O)c(C=O)c2c1O` [GOSSYPOL], the concentration for half-maximal inhibition (IC50) in test [1] was 7 µM; in test [2] it was 13 µM.
